Counter-ions that a name gives are not always drawn.
Experiments:
[1] = system: platelet aggregation caused by ADP in platelet-rich plasma (PRP); experiment: Test Example 1: in vitro platelet aggregation inhibitory effect; format: cell-based, rat (male Sprague-Dawley); conditions: 10 μg/ml test compound; rat PRP; ADP final concentration 10 μM; maximum platelet aggregation ratio
Protocol: Male Sprague-Dawley rats (8-week old, Japan SLC, Inc.), 3 to 4 animals per group, were used for the test. The platelet aggregation was measured with an automatic platelet aggregometer (MCM Hema Tracer 313M, MC Medical, Inc.) by a partially modified method of Born et al., The Journal of Physiology, Vol. 168, Section 178 (1963). 6.3 ml of blood was sampled from the ventral aorta of a rat anesthetized with pentobarbital (40 mg/kg) using 3.8% (w/v) sodium citrate solution (0.7 ml) as an anticoagulant. The obtained blood containing citrate was centrifuged (230 g, 15 minutes, room temperature) to separate a platelet-rich plasma (hereinbelow abbreviated as PRP). The blood after the separation of PRP was further centrifuged (2,000 g, 10 minutes, room temperature) to separate a platelet-poor plasma (hereinbelow abbreviated as PPP). After the number of blood platelet in PRP was measured with a multi-item automatic blood corpuscle counter (KX-21N, Sysmex Corporation), PPP was added thereto to adjust the blood platelet count to 5×10^8/ml. After PRP (239 μl) was pipetted into cuvettes, test compounds (1 μl) dissolved in dimethylsulfoxide (DMSO) were added to PRP and the cuvettes were set in the automatic platelet aggregometer. DMSO (1 μl) was added in place of the test compounds for the control group. After preliminary warming (37° C.) for 1.5 minutes, 10 μl of adenosine 5′-diphosphate (ADP) solution (final concentration at 10 μM) was added to cause platelet aggregation. Platelet aggregation was measured for 5 minutes and the maximum platelet aggregation ratio was determined.

[2] = system: platelet aggregation caused by ADP in platelet-rich plasma (PRP) after oral administration; experiment: Test Example 2: ex vivo platelet aggregation inhibitory effect; format: in vivo, rat (male Sprague-Dawley); conditions: 4 hours before blood sampling, rat PRP, ADP final concentration 3 μM, maximum platelet aggregation ratio; for inhibition at 10 mg/kg: 10 mg/kg orally, read-out: Test Example 1 (% inhibition) 10 mg/kg
Protocol: Male Sprague-Dawley rats (8-week old, Japan SLC, Inc.), 3 to 4 animals per group, were used for the test. The platelet aggregation was measured with an automatic platelet aggregometer (MCM Hema Tracer 313M, MC Medical, Inc.) by a partially modified method of Bom et al., The Journal of Physiology, Vol. 168, Section 178 (1963). Test compounds suspended in 5% Arabian gum solution or 10% dimethylacetamide/64% polyethylene glycol 400/16% Tween 80 solution were orally administered in a dose ratio of 1 mL/kg 4 hours before blood sampling. Vehicle was orally administered 4 hours in a dose ratio of 1 mL/kg before the sampling of the blood for the control group. 6.3 ml of blood was sampled from the ventral aorta of a rat anesthetized with pentobarbital (40 mg/kg) using 3.8% (w/v) sodium citrate solution (0.7 ml) as an anticoagulant. The obtained blood containing citrate was centrifuged (230 g, 15 minutes, room temperature) to separate PRP. The blood after the separation of PRP was further centrifuged (2,000 g, 10 minutes, room temperature) to separate PPP. After the number of blood platelet in PRP was measured with a multi-item automatic blood corpuscle counter (KX-21N, Sysmex Corporation), PPP was added thereto to adjust the blood platelet to 5×10^8/ml. After PRP (240 μl) was pipetted into cuvettes, the cuvettes were set in the automatic platelet aggregometer. After preliminary warming (37° C.) for 1.5 minutes, 10 μl of ADP solution (final concentration 3 μM) was added to cause platelet aggregation. Platelet aggregation was measured for 5 minutes and the maximum platelet aggregation ratio was determined.

| Structure (SMILES) | inhibition at 10 µg/mL [1] | inhibition at 3 mg/kg ([2]; 3 mg/kg orally, read-out: Test Example 1 (% inhibition) 3 mg/kg) | inhibition at 10 mg/kg [2] |
| --- | --- | --- | --- |
| O=C(O)c1cnn(C/C=C2\CN(C(C(=O)C3CC3)c3ccccc3F)CCC2S)c1 (stereo not shown) [Example 44, (E)-3-[2-(4-Carboxy-1H-pyrazol-1-yl)ethylidene]-1-[2-cyclopropyl-1-(2-fluorophenyl)-2-oxoethyl]-4-sulfanylpiperidine hydrochloride] | 81% | 61% |  |
| O=C(O)CCN1CCN(C/C=C2\CN(C(C(=O)C3CC3)c3ccccc3F)CCC2S)C(=O)C1 (stereo not shown) [Example 23, (E)-3-(2-{4-[2-(Carboxyethyl)]-2-oxopiperazin-1-yl}ethylidene)-1-[2-cyclopropyl-1-(2-fluorophenyl)-2-oxoethyl]-4-sulfanylpiperidine dihydrochloride] | 77% |  | 72% |
| O=C(O)CCN1CCN(C/C=C2\CN(C(C(=O)C3CC3)c3ccccc3F)CCC2S)CC1=O (stereo not shown) [Example 19, (E)-3-(2-{4-[2-(Carboxyethyl)]-3-oxopiperazin-1-yl}ethylidene)-1-[2-cyclopropyl-1-(2-fluorophenyl)-2-oxoethyl]-4-sulfanylpiperidine dihydrochloride] | 77% |  | 60% |
| COC(=O)CCN1CCN(C/C=C2\CN(C(C(=O)C3CC3)c3ccccc3F)CCC2S)CC1=O (stereo not shown) [Example 18, (E)-1-[2-Cyclopropyl-1-(2-fluorophenyl)-2-oxoethyl]-3-(2-{4-[2-(methoxycarbonyl)ethyl]-3-oxopiperazin-1-yl}ethylidene)-4-sulfanylpiperidine dihydrochloride] | 73% |  | 74% |
| CN(C/C=C1/CN(C(C(=O)C2CC2)c2ccccc2F)CCC1S)CCCC(=O)O (stereo not shown) [Example 91, (Z)-3-(2-{N-[3-(Carboxy)propyl]-N-methylamino}ethylidene)-1-[2-cyclopropyl-1-(2-fluorophenyl)-2-oxoethyl]-4-sulfanylpiperidine dihydrochloride] | 74% |  |  |
| CCOC(=O)CCN1CCN(C/C=C2\CN(C(C(=O)C3CC3)c3ccccc3F)CCC2S)C(=O)C1 (stereo not shown) [Example 22, (E)-1-[2-Cyclopropyl-1-(2-fluorophenyl)-2-oxoethyl]-3-(2-{4-[2-(ethoxycarbonyl)ethyl]-2-oxopiperazin-1-yl}ethylidene)-4-sulfanylpiperidine dihydrochloride] | 67% |  | 79% |
| CN(C/C=C1/CN(C(C(=O)C2CC2)c2ccccc2F)CCC1S)CC(=O)O (stereo not shown) [Example 86, (Z)-3-{2-[N-(Carboxymethyl)-N-methylamino]ethylidene}-1-[2-cyclopropyl-1-(2-fluorophenyl)-2-oxoethyl]-4-sulfanylpiperidine dihydrochloride] | 82% |  |  |
| O=C(O)c1cnn(C/C=C2/CN(C(C(=O)C3CC3)c3ccccc3F)CCC2S)c1 (stereo not shown) [Example 111, (Z)-3-[2-(4-Carboxy-1H-pyrazol-1-yl)ethylidene]-1-[2-cyclopropyl-1-(2-fluorophenyl)-2-oxoethyl]-4-sulfanylpiperidine hydrochloride] | 82% |  | 82% |
| CCOC(=O)c1cn(C/C=C2\CN(C(C(=O)C3CC3)c3ccccc3F)CCC2S)nn1 (stereo not shown) [Example 50, (E)-1-[2-Cyclopropyl-1-(2-fluorophenyl)-2-oxoethyl]-3-[2-(4-ethoxycarbonyl-1H-1,2,3-triazol-1-yl)ethylidene]-4-sulfanylpiperidine hydrochloride] | 79% |  |  |
| O=C(O)Cc1cnn(C/C=C2\CN(C(C(=O)C3CC3)c3ccccc3F)CCC2S)c1 (stereo not shown) [Example 74, (E)-3-{2-[4-(Carboxymethyl)-1H-pyrazol-1-yl]ethylidene}-1-[2-cyclopropyl-1-(2-fluorophenyl)-2-oxoethyl]-4-sulfanylpiperidine hydrochloride] | 80% |  | 100% |
| CCOC(=O)CN1CCC(/C=C2\CN(C(C(=O)C3CC3)c3ccccc3F)CCC2SC(C)=O)CC1 (stereo not shown) [Example 36, (E)-4-(Acetylsulfanyl)-1-[2-cyclopropyl-1-(2-fluorophenyl)-2-oxoethyl]-3-{[1-(ethoxycarbonylmethyl)piperidin-4-yl]methylidene}piperidine dihydrochloride] |  |  | 80% |
| O=C(O)c1cn(C/C=C2\CN(C(C(=O)C3CC3)c3ccccc3F)CCC2S)nn1 (stereo not shown) [Example 51, (E)-3-[2-(4-Carboxy-1H-1,2,3-triazol-1-yl)ethylidene]-1-[2-cyclopropyl-1-(2-fluorophenyl)-2-oxoethyl]-4-sulfanylpiperidine hydrochloride] | 81% |  |  |
| CN(C/C=C1\CN(C(C(=O)C2CC2)c2ccccc2F)CCC1S)CC(=O)O (stereo not shown) [Example 83, (E)-3-{2-[N-(Carboxymethyl)-N-methylamino]ethylidene}-1-[2-cyclopropyl-1-(2-fluorophenyl)-2-oxoethyl]-4-sulfanylpiperidine dihydrochloride] | 68% |  |  |
| O=C(O)CN1CCN(C/C=C2\CN(C(C(=O)C3CC3)c3ccccc3F)CCC2S)CC1=O (stereo not shown) [Example 15, (E)-3-{2-[4-(Carboxymethyl)-3-oxopiperazin-1-yl]ethylidene}-1-[2-cyclopropyl-1-(2-fluorophenyl)-2-oxoethyl]-4-sulfanylpiperidine dihydrochloride] | 90% |  |  |
| CCOC(=O)C1CCN(C/C=C2\CN(C(C(=O)C3CC3)c3ccccc3F)CCC2SC(C)=O)CC1 (stereo not shown) [Example 29, (E)-4-(Acetylsulfanyl)-1-[2-cyclopropyl-1-(2-fluorophenyl)-2-oxoethyl]-3-{2-[4-(ethoxycarbonyl)piperidin-1-yl]ethylidene}piperidine dihydrochloride] |  |  | 89% |

— patent US20090306059A1, “CYCLIC AMINE DERIVATIVE HAVING SUBSTITUTED ALKYL GROUP” (priority 2005, published 2009)
